Experimental data as given in patent publication US7105513B2, “Acylated, heteroaryl-condensed cycloalkenylamines and their use as pharmaceuticals” (Sanofi-Avertis Deutschland GmbH, priority 2002, dated 2006).
Structures can show the parent of a compound that is named as a salt.

Tested on: eNOS promoter
Assay: Activation of eNOS transcription (eNOS promoter-luciferase reporter gene assay)
Format: cell-based
Settings: Homo sapiens, Endothelial cell, 18 h, human endothelial cell line stably transfected with eNOS promoter-firefly luciferase construct; 18 h incubation; EC50 determined graphically; read-out: EC50 of transcription induction ratio (TIR)
Procedure: Determination of Activation of eNOS Transcription
Activation of eNOS transcription was determined as described in detail in Li et al., “Activation of protein kinase C alpha and/or epsilon enhances transcription of the human endothelial nitric oxide synthase gene”, Mol. Pharmacol. 53 (1998) 630, the content of which is incorporated herein by reference.
Briefly, a 3.5 kB long fragment 5′ of the starting codon of the eNOS gene was cloned, sequenced and cloned in firefly luciferase expression plasmids to monitor activation of the eNOS promoter by reporter gene activity. A human endothelial cell line stable transfected and expressing this promoter-reporter construct was used for compound testing. Cells were incubated for 18 h with compounds.
All compounds were dissolved in sterile dimethyl sulfoxide (DMSO). A final concentration of 0.5% DMSO in complete medium was allowed. Induction of reporter gene expression in these cells was measured using a standard luciferase assay system (Promega, Cat. No E150) according to the manufacturer's instructions. Luciferase induction in cells incubated with compounds were compared to those incubated with solvent alone. The ratio of both activities (transcription induction ratio, TIR) was plotted as a function of compound concentration,. Typically, TIR values started at low concentrations at a ratio of 1, indicating no compound effect, and extended up to a maximum TIR value TIR(max) which indicates the increase of the eNOS transcription. EC50 values of transcription induction ratios as a function of compound concentration were determined graphically.

Row | Structure (SMILES) | EC50 [µM]
1 | Cc1nn(C)cc1C(=O)NC1Cc2ccsc2C1 (stereo not drawn) [Example 20, 1,3-Dimethyl-1H-pyrazole-4-carboxylic acid (5,6-dihydro-4H-cyclopenta[b]thiophen-5-yl)amide] | 9.8
2 | O=C(NC1Cc2ccsc2C1)c1cccc(N2CCOCC2)c1 (stereo not drawn) [Example 31, N-(5,6-Dihydro-4H-cyclopenta[b]thiophen-5-yl)-3-(morpholin-4-yl)benzamide] | 3.3
3 | COCc1ccc(C(=O)NC2Cc3cccnc3C2)cn1 (single isomer, unassigned; enantiomer 1) [Example 8, N-(6,7-Dihydro-5H-[1]pyrindin-6-yl)-6-methoxymethyinicotinamide (enantiomer 1)] | 30
4 | Cc1ccc(C(=O)NC2Cc3ccsc3C2)c(C)c1 (stereo not drawn) [Example 27, N-(5,6-Dihydro-4H-cyclopenta[b]thiophen-5-yl)-2,4-dimethylbenzamide] | < 0.1
5 | Cc1ccc(C(=O)NC2CCCc3cccnc3C2)c(C)c1 (stereo not drawn) [Example 11, 2,4-Dimethyl-N-(6,7,8,9-tetrahydro-5H-cyclohepta[b]pyridin-8-yl)benzamide] | 0.064
6 | CS(=O)(=O)Nc1cccc(C(=O)NC2Cc3ccsc3C2)c1 (stereo not drawn) [Example 29, N-(5,6-Dihydro-4H-cyclopenta[b]thiophen-5-yl)-3-methylsulfonylaminobenzamide] | 2.3
7 | Cc1nc(C)c(C(=O)NC2Cc3ccsc3C2)s1 (stereo not drawn) [Example 19, 2,4-Dimethylthiazole-5-carboxylic acid (5,6-dihydro-4H-cyclopenta[b]thiophen-5-yl)amide] | 20
8 | Cc1nc2ccc(C(=O)NC3Cc4ccsc4C3)cc2[nH]1 (stereo not drawn) [Example 15, 2-Methyl-3H-benzimidazole-5-carboxylic acid (5,6-dihydro-4H-cyclopenta[b]thiophen-5-yl)amide, trifluoroacetic acid salt] | 3.1
9 | O=C(NC1Cc2ccsc2C1)c1cccc(Cl)c1Cl (stereo not drawn) [Example 26, 2,3-Dichloro-N-(5,6-dihydro-4H-cyclopenta[b]thiophen-5-yl)benzamide] | 1.5
10 | O=C(NC1Cc2ccsc2C1)c1ccc(F)cc1F (stereo not drawn) [Example 28, N-(5,6-Dihydro-4H-cyclopenta[b]thiophen-5-yl)-2,4-difluorobenzamide] | 0.76
11 | COCc1ccc(C(=O)NC2Cc3ccsc3C2)cn1 (stereo not drawn) [Example 24, N-(5,6-Dihydro4H-cyclopenta[b]thiophen-5-yl)-6-methoxymethylnicotinamide, trifluoroacetic acid salt] | 125
12 | Cc1cc(C(=O)NC2Cc3ccsc3C2)c(C)n1Cc1ccncc1 (stereo not drawn) [Example 18, 2,5-Dimethyl-1-pyridin-4-ylmethyl-1H-pyrrole-3-carboxylic acid (5,6-dihydro-4H-cyclopenta[b]thiophen-5-yl)amide, trifluoroacetic acid salt] | 3.3
13 | Cc1ccc(C(=O)NC2Cc3ccsc3C2)cn1 (stereo not drawn) [Example 22, N-(5,6-Dihydro-4H-cyclopenta[b]thiophen-5-yl)-6-methylnicotinamide, trifluoroacetic acid salt] | 1.6
14 | COc1ccc(C(=O)NC2Cc3cccnc3C2)cn1 (single isomer, unassigned; enantiomer 1) [Example 6, N-(6,7-Dihydro-5H-[1]pyrindin-6-yl)-6-methoxynicotinamide (enantiomer 1)] | 12
15 | O=C(NC1Cc2ccsc2C1)c1cnn(-c2ccccc2)c1C(F)(F)F (stereo not drawn) [Example 17, 1-Phenyl-5-trifluoromethyl-1H-pyrazole-4-carboxylic acid (5,6-dihydro-4H-cyclopenta[b]thiophen-5-yl)amide] | 0.35
16 | COc1ccc(C(=O)NC2Cc3ccsc3C2)cn1 (stereo not drawn) [Example 14, N-(5,6-Dihydro-4 H-cyclopenta[b]thiophen-5-yl)-6-methoxynicotinamide] | 2.4
17 | O=C(NC1Cc2cccnc2C1)c1ccc2c(c1)OC(F)(F)O2 (single isomer, unassigned; enantiomer 1) [Example 9, 2,2-Difluorobenzo[1,3]dioxole-5-carboxylic acid (6,7-dihydro-5H-[1]pyrindin-6-yl)amide (enantiomer 1), trifluoroacetic acid salt] | 0.93
18 | Nc1nccnc1C(=O)NC1Cc2ccsc2C1 (stereo not drawn) [Example 25, 3-Aminopyrazine-2-carboxylic acid (5,6-dihydro-4H-cyclopenta[b]thiophen-5-yl)amide] | 18
19 | O=C(NC1Cc2cccnc2C1)c1ccc(Cl)cc1 (single isomer, unassigned; enantiomer 1) [Example 10, 4-Chloro-N-(6,7-dihydro-5H-[1]pyrindin-6-yl)benzamide (enantiomer 1), trifluoroacetic acid salt] | 0.8
20 | Cc1ccc(C(=O)NC2Cc3ccsc3C2)c(C)n1 (stereo not drawn) [Example 13, N-(5,6-Dihydro-4H-cyclopenta[b]thiophen-5-yl)-2,6-dimethylnicotinamide, trifluoroacetic acid salt] | 0.62
21 | Cc1cnc(C(=O)NC2Cc3ccsc3C2)c(N)n1 (stereo not drawn) [Example 12, 3-Amino-5-methylpyrazine-2-carboxylic acid (5,6-dihydro4H-cyclopenta[b]thiophen-5-yl)amide] | 11
22 | Nc1ncccc1C(=O)NC1Cc2ccsc2C1 (stereo not drawn) [Example 21, 2-Amino-N-(5,6-dihydro-4H-cyclopenta[b]thiophen-5-yl)nicotinamide, trifluoroacetic acid salt] | 4.8
23 | Cc1ccc(C(=O)NC2Cc3ccsc3C2)c(Cl)n1 (stereo not drawn) [Example 23, 2-Chloro-N-(5,6-dihydro-4H-cyclopenta[b]thiophen-5-yl)-6-methylnicotinamide] | 0.8
24 | Cc1c(C(=O)NC2Cc3ccsc3C2)cnn1-c1ccccc1 (stereo not drawn) [Example 16, 5-Methyl-1-phenyl-1H-pyrazole-4-carboxylic acid (5,6-dihydro-4H-cyclopenta[b]thiophen-5-yl)amide] | 0.2
25 | Cc1nc2ccc(C(=O)NC3Cc4cccnc4C3)cc2[nH]1 (single isomer, unassigned; enantiomer 1) [Example 7, 2-Methyl-3H-benzimidazole-5-carboxylic acid (6,7-dihydro-5H-[1]pyrindin-6-yl)amide (enantiomer 1)] | 23
26 | O=C(NC1Cc2ccsc2C1)c1ccc(N2CCOCC2)nc1 (stereo not drawn) [Example 30, N-(5,6-Dihydro-4H-cyclopenta[b]thiophen-5-yl)-6-(morpholin-4-yl)nicotinamide, trifluoroacetic acid salt] | 11
27 | Cc1ccc(C(=O)NC2Cc3cccnc3C2)c(C)n1 (single isomer, unassigned; enantiomer 1) [Example 5, N-(6,7-Dihydro-5H-[1]pyrindin-6-yl)-2,6-dimethylnicotinamide (enantiomer 1)] | 3.3
